Experiments:
human TLR7 = target: T1, human TLR7 (Homo sapiens, UniProt Q9NYK1); assay: TLR7 cellular reporter assay (HEK293, NFκB-luc); format: cell-based; conditions: HEK293 cells transfected with CMV-TLR7 and NFκB-luc, 6 hours incubation; lowest effective concentration
T1 construct: expressed in transfected cells; host or cells: HEK293 cells, transient transfection with CMV-TLR7 plasmid and NFκB-luc plasmid
T1 sequence (Q9NYK1 27-1049): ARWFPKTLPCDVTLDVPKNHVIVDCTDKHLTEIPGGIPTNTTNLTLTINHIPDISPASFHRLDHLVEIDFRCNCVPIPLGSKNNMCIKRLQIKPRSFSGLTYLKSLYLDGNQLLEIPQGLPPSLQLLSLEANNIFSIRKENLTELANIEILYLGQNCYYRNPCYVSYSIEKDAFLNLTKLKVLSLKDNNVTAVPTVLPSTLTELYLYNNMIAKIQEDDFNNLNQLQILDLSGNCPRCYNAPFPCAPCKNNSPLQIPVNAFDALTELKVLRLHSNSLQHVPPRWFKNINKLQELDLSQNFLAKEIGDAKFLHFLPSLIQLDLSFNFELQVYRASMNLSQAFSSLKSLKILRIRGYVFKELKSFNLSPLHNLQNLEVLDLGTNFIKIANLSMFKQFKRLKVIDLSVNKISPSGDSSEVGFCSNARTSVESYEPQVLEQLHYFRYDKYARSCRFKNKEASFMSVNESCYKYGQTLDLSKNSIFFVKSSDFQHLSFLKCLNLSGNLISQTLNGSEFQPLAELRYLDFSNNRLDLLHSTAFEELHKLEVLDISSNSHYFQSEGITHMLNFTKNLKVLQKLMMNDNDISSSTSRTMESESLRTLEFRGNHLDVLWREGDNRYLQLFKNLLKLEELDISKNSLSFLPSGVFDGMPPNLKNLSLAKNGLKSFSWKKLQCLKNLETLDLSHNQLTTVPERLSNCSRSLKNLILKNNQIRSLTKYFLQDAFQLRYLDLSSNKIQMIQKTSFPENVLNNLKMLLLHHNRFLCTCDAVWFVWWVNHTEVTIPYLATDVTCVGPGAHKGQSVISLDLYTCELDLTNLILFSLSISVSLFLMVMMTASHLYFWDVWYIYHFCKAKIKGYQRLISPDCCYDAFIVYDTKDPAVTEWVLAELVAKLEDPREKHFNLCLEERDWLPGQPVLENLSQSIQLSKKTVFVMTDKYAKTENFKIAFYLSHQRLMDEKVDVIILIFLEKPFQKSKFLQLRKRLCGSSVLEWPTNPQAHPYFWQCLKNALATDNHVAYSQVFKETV
Procedure, shortened: (§1)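 HEK293 cells transiently transfected with receptor expression vector plus NFκB-luciferase reporter, exposed to compound (added in 4% DMSO) for 6 hours at 37° C, 5% CO2. Luciferase activity measured by luminescence; dose-response curves from quadruplicate measurements.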

human TLR8 = target: T2, human TLR8 (Homo sapiens, UniProt Q9NR97); assay: TLR8 cellular reporter assay (HEK293, NFκB-luc); format: cell-based; conditions: HEK293 cells transfected with CMV-TLR8 and NFκB-luc, 6 hours incubation; lowest effective concentration
T2 construct: expressed in transfected cells; host or cells: HEK293 cells, transient transfection with TLR8 plasmid and NFκB-luc plasmid
T2 sequence (Q9NR97 27-1041): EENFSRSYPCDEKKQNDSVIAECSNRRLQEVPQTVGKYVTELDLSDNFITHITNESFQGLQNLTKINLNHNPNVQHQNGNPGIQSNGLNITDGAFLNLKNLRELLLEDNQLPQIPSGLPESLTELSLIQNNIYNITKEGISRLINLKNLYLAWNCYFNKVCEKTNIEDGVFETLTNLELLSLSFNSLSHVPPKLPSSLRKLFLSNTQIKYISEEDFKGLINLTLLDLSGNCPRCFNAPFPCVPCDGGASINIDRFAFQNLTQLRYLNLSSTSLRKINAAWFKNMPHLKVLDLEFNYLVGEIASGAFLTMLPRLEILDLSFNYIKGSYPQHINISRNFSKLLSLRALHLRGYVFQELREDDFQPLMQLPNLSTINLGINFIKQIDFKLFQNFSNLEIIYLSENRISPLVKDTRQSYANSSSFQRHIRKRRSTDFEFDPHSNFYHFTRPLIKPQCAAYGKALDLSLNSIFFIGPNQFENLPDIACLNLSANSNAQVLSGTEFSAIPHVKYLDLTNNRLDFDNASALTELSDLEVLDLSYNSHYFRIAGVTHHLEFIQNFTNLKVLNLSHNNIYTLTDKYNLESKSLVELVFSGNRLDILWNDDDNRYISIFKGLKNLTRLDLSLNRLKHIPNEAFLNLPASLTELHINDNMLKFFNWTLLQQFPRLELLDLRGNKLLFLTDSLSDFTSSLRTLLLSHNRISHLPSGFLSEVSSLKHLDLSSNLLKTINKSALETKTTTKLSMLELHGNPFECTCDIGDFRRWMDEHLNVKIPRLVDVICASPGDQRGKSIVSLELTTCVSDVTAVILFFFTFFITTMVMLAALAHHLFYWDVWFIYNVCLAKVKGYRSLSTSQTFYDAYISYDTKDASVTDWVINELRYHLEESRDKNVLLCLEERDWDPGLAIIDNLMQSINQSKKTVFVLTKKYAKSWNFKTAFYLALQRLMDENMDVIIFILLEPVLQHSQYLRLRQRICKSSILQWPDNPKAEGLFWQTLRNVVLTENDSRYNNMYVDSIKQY
Procedure, shortened: as §1

[1] = system: interferon-stimulated responsive elements (ISRE); assay: Activation of ISRE promoter elements by conditioned media from PBMC (HEK-ISREluc); format: cell-based, human; conditions: Homo sapiens; conditioned media from PBMC transferred to HEK-ISREluc cells, 24 hours; lowest effective concentration; read-out: PBMC LEC
Procedure, shortened: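 Human PBMCs (≥2 donors, RPMI + 10% human AB serum, 2×10^5 cells/well) incubated overnight with compound; supernatant transferred to HEK293 cells stably carrying pISRE-Luc for 24 h, then luciferase read. LEC = compound concentration on PBMCs giving luciferase signal at least two-fold above assay SD; recombinant IFN-α-2a standard.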

Row | TLR7 LEC (human TLR7) [µM] | TLR8 LEC (human TLR8) [µM] | Structure (SMILES) | minimal effective concentration [1] [µM]
1 | 0.07 | >25 | Cc1cc(CNc2nc(N)nc3ccn(Cc4ncccc4C)c23)no1 [Compound 185] | 0.018
2 | 0.05 | >25 | Cc1cc(CNc2nc(N)nc3ccn(Cc4cc5ccccc5cn4)c23)no1 [Compound 182] | 0.018
3 | 0.30 | >25 | CCCCNc1nc(N)nc2ccn(Cc3cccc(F)c3)c12 [Compound 5] | 0.2
4 | 0.670 | >25 | CCOc1ccccc1Cn1ccc2nc(N)nc(NCCOC)c21 [Compound 129] | 0.122
5 | 7.62 | >25 | Cn1cnc(CNc2nc(N)nc3ccn(Cc4ccccn4)c23)c1 [Compound 188] | 0.047
6 | 0.73 | >25 | COCCn1ccc2nc(N)nc(N[C@@H](C)c3ccccn3)c21 (single isomer, unassigned) [Compound 152] | 0.142
7 | 5.99 | >25 | COCCNc1nc(N)nc2ccn(Cc3cscn3)c12 [Compound 132] | 0.879
8 | 0.14 | 1.3 | CCCCNc1nc(N)nc2ccn(Cc3cc(C)on3)c12 [Compound 20] | 0.02
9 | 0.16 | 3.93 | CCCCNc1nc(N)nc2ccn(C[C@H]3CCCO3)c12 [Compound 148] | 0.056
10 | 0.15 | 0.85 | CCC[C@@H](CO)Nc1nc(N)nc2ccn(CC(C)C)c12 [Compound 27] | 0.17
11 | 0.80 | >25 | CCCCNc1nc(N)nc2ccn(Cc3ccccc3Cl)c12 [Compound 13] | 0.89
12 | 1.650 | >25 | COCCNc1nc(N)nc2ccn(Cc3ccncc3)c12 [Compound 118] | 3.01
13 | 2.57 | 3.96 | CCCCNc1nc(N)nc2ccn(CCn3cccc3)c12 [Compound 66] | 0.91
14 | 11.960 | >25 | CC(Nc1nc(N)nc2ccn(C)c12)c1ccccn1 (stereo not drawn) [Compound 104] | 1.98
15 | 0.53 | 2.1 | CCCCNc1nc(N)nc2ccn(CCC)c12 [Compound 9] | 0.22
16 | 0.07 | >25 | CCCCNc1nc(N)nc2ccn(Cc3ccccc3OCC)c12 [Compound 133] | 0.023
17 | 0.89 | >25 | CCCCNc1nc(N)nc2ccn(Cc3ccc(F)c(Cl)c3)c12 [Compound 16] | 0.6
18 | 5.84 | >25 | CCC[C@@H](CO)Nc1nc(N)nc2ccn(Cc3cccnn3)c12 [Compound 15] | 0.1

Row | TLR7 LEC (human TLR7) [µM] | TLR8 LEC (human TLR8) [µM] | Structure (SMILES) | minimal effective concentration [1] [µM]
19 | 0.11 | >25 | CCCCNc1nc(N)nc2ccn(Cc3ccccc3F)c12 [Compound 43] | 0.17
20 | 1.63 | >25 | CCCCNc1nc(N)nc2cc(F)n(Cc3ccccc3)c12 [Compound 86] | 0.47
21 | 0.06 | 20.2 | Cc1cc(CNc2nc(N)nc3ccn(Cc4cc(C)on4)c23)no1 [Compound 181] | 0.015
22 | 0.48 | 9.2 | CCC[C@@H](CO)Nc1nc(N)nc2ccn(Cc3ccccn3)c12 [Compound 22] | 0.02
23 | 0.01 | >25 | CCC[C@@H](CCO)Nc1nc(N)nc2c(F)cn(Cc3ccccc3)c12 [Compound 94] | 0.01
24 | 7.60 | >25 | COCCn1ccc2nc(N)nc(NC(C)COC)c21 (stereo not drawn) [Compound 212] | 2.09
25 | <0.01 | 0.04 | CCC[C@@H](CO)Nc1nc(N)nc2ccn(Cc3c(OC)cccc3OC)c12 [Compound 100] | < 0.001
26 | 1.320 | >25 | COCCNc1nc(N)nc2ccn(Cc3cccc(C)n3)c12 [Compound 113] | 0.807
27 | 1.57 | >25 | CCCCn1ccc2nc(N)nc(NCc3ccccc3)c21 [Compound 83] | 2.3
28 | 12.5 | >25 | COCCNc1nc(N)nc2ccn(Cc3cc(OC4CCOC4)c(OC)cn3)c12 (stereo not drawn) [Compound 135] | 4.05
29 | 1.940 | >25 | CCCCNc1nc(N)nc2ccn(Cc3ccccc3OC(F)(F)F)c12 [Compound 130] | 0.804
30 | <0.01 | 0.22 | CCCC(C)Nc1nc(N)nc2ccn(Cc3c(OC)cccc3OC)c12 (stereo not drawn) [Compound 98] | 0.001
31 | 0.53 | >25 | Cc1nc(CNc2nc(N)nc3ccn(Cc4ccccn4)c23)no1 [Compound 173] | 0.066
32 | 1.61 | >25 | COCCn1ccc2nc(N)nc(NCc3ccc(C)cn3)c21 [Compound 202] | 0.58
33 | 0.15 | >25 | CCCCCNc1nc(N)nc2ccn(Cc3ccccc3)c12 [Compound 29] | 0.04
34 | 2.030 | >25 | COCCNc1nc(N)nc2ccn(Cc3cccc(OC)c3)c12 [Compound 107] | 2.13
35 | 0.60 | 23.5 | COCCn1ccc2nc(N)nc(NCc3cc(C(C)C)on3)c21 [Compound 199] | 0.032

— patent US11220504B2, “Pyrrolo[3,2-d] pyrimidine derivatives for the treatment of viral infections and other diseases” (JANSSEN SCIENCES IRELAND UNLIMITED COMPANY, priority 2012, dated 2022)
